Test results as given in paper PMC10710035 (Breast cancer research and treatment, 2023).
Where two headings read alike, the source gives them in different places.

How the values were obtained:
metastatic TNBC = conditions: cited from earlier work
[1] = Plasma pharmacokinetics, cycle 1 day 3; format: in vivo, human
early-stage TNBC = conditions: weekly paclitaxel alone, then AC; 95% PI, 9-43%; cited from earlier work
[2] = system: patients with advanced solid tumors; format: in vivo
[3] = system: patients with advanced solid tumors
BRCA mutated TNBC = conditions: addition of 120 mg BID to carboplatin plus paclitaxel; BROCADE 2; cited from earlier work
patients [4] = conditions: cited from earlier work
patients [5] = conditions: olaparib with carboplatin; cited from earlier work
[6] = cisplatin without veliparib, BRCA-like phenotype
[7] = Expansion (n = 12), veliparib 150 mg bid continuous
[8] = Level 1 (n = 3), veliparib 50 mg bid
[9] = Level 2 (n = 3), veliparib 100 mg bid
[10] = Level 3 (n = 7), veliparib 150 mg bid
[11] = Level 4 (n = 5), veliparib 200 mg bid

For `N.N.[Cl][Pt][Cl]` [cisplatin], the “PFS at 1 year” value (metastatic TNBC; [6]) is listed as 7%, the “median PFS” value (metastatic TNBC; [6]) is listed as 4.3 months and the “rate of grade 3/4 neutropenia” value (metastatic TNBC; in vivo) is listed as 19%.

For `CC(=O)O[C@H]1C(=O)[C@@]2(C)[C@H]([C@H](OC(=O)c3ccccc3)[C@]3(O)C[C@H](OC(=O)[C@H](O)[C@@H](NC(=O)c4ccccc4)c4ccccc4)C(C)=C1C3(C)C)[C@]1(OC(C)=O)CO[C@@H]1C[C@@H]2O` [Paclitaxel, paclitaxel], the “exposure (Cmax and AUC0-∞) across veliparib doses” value ([1]; human, in vivo) is given as “not altered” and the “complete pathological response (cPR) rate” value (early-stage TNBC) is given as 26%.

For `C[C@]1(c2nc3c(C(N)=O)cccc3[nH]2)CCCN1` [veliparib], the “thrombocytopenia grade 3/4” value ([2]; 4 patients of 30, all dose levels and cycles) was 13%, the “anemia grade 3/4” value ([2]; 7 patients of 30, all dose levels and cycles) was 23% and the “neutropenia grade 3/4” value ([2]; 18 patients of 30, all dose levels and cycles) was 60%. For the same compound, the “relationship between veliparib dose level and incidence or severity of adverse events” value ([2]; 50-200 mg bid) was “no clear relationship”, the “ALT increased, any grade” value ([2]; All Patients (N = 30)) was 4 (13%) and the “AST increased, any grade” value ([2]; All Patients (N = 30)) was 3 (10%). The “Anemia, any grade” value ([2]; All Patients (N = 30)) was 20 (67%), the “Anemia, grade ≥ 3” value ([2]; All Patients (N = 30)) was 7 (23%) and the “Anorexia, any grade” value ([2]; All Patients (N = 30)) was 3 (10%). The “Any Grade ≥ 3 AE” value ([2]; All Patients (N = 30)) was 24 (80%), the “Any grade AE” value ([2]; All Patients (N = 30)) was 28 (93%) and the “Bruising, any grade” value ([2]; All Patients (N = 30)) was 2 (7%). For the same compound, the “Dehydration, grade ≥ 3” value ([2]; All Patients (N = 30)) was 1 (3%), the “Diarrhea, any grade” value ([2]; All Patients (N = 30)) was 5 (17%) and the “Dysgeusia, any grade” value ([2]; All Patients (N = 30)) was 2 (7%). For the same compound, the “Fatigue, any grade” value ([2]; All Patients (N = 30)) was 18 (60%), the “Fatigue, grade ≥ 3” value ([2]; All Patients (N = 30)) was 1 (3%) and the “Febrile neutropenia, grade ≥ 3” value ([2]; All Patients (N = 30)) was 1 (3%). The “Headache, any grade” value ([2]; All Patients (N = 30)) was 3 (10%), the “Hot flashes, any grade” value ([2]; All Patients (N = 30)) was 4 (13%) and the “Hyperglycemia, any grade” value ([2]; All Patients (N = 30)) was 2 (7%). For the same compound, the “Hypocalcemia, any grade” value ([2]; All Patients (N = 30)) was 3 (10%), the “Hyponatremia, any grade” value ([2]; All Patients (N = 30)) was 2 (7%) and the “Hypophosphatemia, any grade” value ([2]; All Patients (N = 30)) was 4 (13%). The “Hypophosphatemia, grade ≥ 3” value ([2]; All Patients (N = 30)) was 1 (3%), the “Lymphocyte count decreased, any grade” value ([2]; All Patients (N = 30)) was 11 (37%) and the “Lymphocyte count decreased, grade ≥ 3” value ([2]; All Patients (N = 30)) was 7 (23%). The “Myalgia, any grade” value ([2]; All Patients (N = 30)) was 3 (10%), the “Nausea, any grade” value ([2]; All Patients (N = 30)) was 16 (53%) and the “Nausea, grade ≥ 3” value ([2]; All Patients (N = 30)) was 2 (7%). For the same compound, the “Neutrophil count decreased, any grade” value ([2]; All Patients (N = 30)) was 24 (80%), the “Neutrophil count decreased, grade ≥ 3” value ([2]; All Patients (N = 30)) was 18 (60%) and the “Peripheral sensory neuropathy, any grade” value ([2]; All Patients (N = 30)) was 3 (10%). The “Platelet count decreased, any grade” value ([2]; All Patients (N = 30)) was 22 (73%), the “Platelet count decreased, grade ≥ 3” value ([2]; All Patients (N = 30)) was 4 (13%) and the “Rash maculo-papular, any grade” value ([2]; All Patients (N = 30)) was 2 (7%). For the same compound, the “Vomiting, any grade” value ([2]; All Patients (N = 30)) was 4 (13%), the “Vomiting, grade ≥ 3” value ([2]; All Patients (N = 30)) was 1 (3%) and the “White blood cell decreased, any grade” value ([2]; All Patients (N = 30)) was 22 (73%). For the same compound, the “White blood cell decreased, grade ≥ 3” value ([2]; All Patients (N = 30)) was 15 (50%), the “ALT increased, any grade” value [2, 7] was 3 (25%) and the “AST increased, any grade” value [2, 7] was 2 (17%). The “Anemia, any grade” value [2, 7] was 9 (75%), the “Anemia, grade ≥ 3” value [2, 7] was 3 (25%) and the “Anorexia, any grade” value [2, 7] was 2 (17%). For the same compound, the “Any Grade ≥ 3 AE” value [2, 7] was 11 (92%), the “Any grade AE” value [2, 7] was 12 (100%) and the “Bruising, any grade” value [2, 7] was 1 (8%). The “Dehydration, grade ≥ 3” value [2, 7] was 1 (8%), the “Diarrhea, any grade” value [2, 7] was 3 (25%) and the “Fatigue, any grade” value [2, 7] was 8 (67%). The “Febrile neutropenia, grade ≥ 3” value [2, 7] was 1 (8%), the “Headache, any grade” value [2, 7] was 2 (17%) and the “Hot flashes, any grade” value [2, 7] was 2 (17%). The “Hypocalcemia, any grade” value [2, 7] was 1 (8%), the “Hypophosphatemia, any grade” value [2, 7] was 3 (25%) and the “Hypophosphatemia, grade ≥ 3” value [2, 7] was 1 (8%). For the same compound, the “Lymphocyte count decreased, any grade” value [2, 7] was 7 (58%), the “Lymphocyte count decreased, grade ≥ 3” value [2, 7] was 3 (25%) and the “Myalgia, any grade” value [2, 7] was 2 (17%). For the same compound, the “Nausea, any grade” value [2, 7] was 10 (83%), the “Nausea, grade ≥ 3” value [2, 7] was 1 (8%) and the “Neutrophil count decreased, any grade” value [2, 7] was 10 (83%). For the same compound, the “Neutrophil count decreased, grade ≥ 3” value [2, 7] was 6 (50%), the “Peripheral sensory neuropathy, any grade” value [2, 7] was 2 (17%) and the “Platelet count decreased, any grade” value [2, 7] was 10 (83%). For the same compound, the “Platelet count decreased, grade ≥ 3” value [2, 7] was 2 (17%), the “Vomiting, any grade” value [2, 7] was 3 (25%) and the “White blood cell decreased, any grade” value [2, 7] was 10 (83%). For the same compound, the “White blood cell decreased, grade ≥ 3” value [2, 7] was 7 (58%), the “Any Grade ≥ 3 AE” value [2, 8] was 2 (67%) and the “Any grade AE” value [2, 8] was 2 (67%). The “Neutrophil count decreased, any grade” value [2, 8] was 2 (67%), the “Neutrophil count decreased, grade ≥ 3” value [2, 8] was 2 (67%) and the “Platelet count decreased, any grade” value [2, 8] was 1 (33%). For the same compound, the “Anemia, any grade” value [2, 9] was 3 (100%), the “Any Grade ≥ 3 AE” value [2, 9] was 2 (67%) and the “Any grade AE” value [2, 9] was 3 (100%). For the same compound, the “Bruising, any grade” value [2, 9] was 1 (33%), the “Diarrhea, any grade” value [2, 9] was 2 (67%) and the “Dysgeusia, any grade” value [2, 9] was 1 (33%). For the same compound, the “Fatigue, any grade” value [2, 9] was 3 (100%), the “Hot flashes, any grade” value [2, 9] was 1 (33%) and the “Hyperglycemia, any grade” value [2, 9] was 1 (33%). The “Hypocalcemia, any grade” value [2, 9] was 1 (33%), the “Hyponatremia, any grade” value [2, 9] was 1 (33%) and the “Myalgia, any grade” value [2, 9] was 1 (33%). For the same compound, the “Nausea, any grade” value [2, 9] was 3 (100%), the “Neutrophil count decreased, any grade” value [2, 9] was 3 (100%) and the “Neutrophil count decreased, grade ≥ 3” value [2, 9] was 2 (67%). For the same compound, the “Platelet count decreased, any grade” value [2, 9] was 3 (100%), the “Rash maculo-papular, any grade” value [2, 9] was 1 (33%) and the “White blood cell decreased, any grade” value [2, 9] was 3 (100%). The “White blood cell decreased, grade ≥ 3” value [2, 9] was 1 (33%), the “ALT increased, any grade” value [2, 10] was 1 (14%) and the “AST increased, any grade” value [2, 10] was 1 (14%). For the same compound, the “Anemia, any grade” value [2, 10] was 4 (57%), the “Anemia, grade ≥ 3” value [2, 10] was 2 (29%) and the “Anorexia, any grade” value [2, 10] was 1 (14%). For the same compound, the “Any Grade ≥ 3 AE” value [2, 10] was 4 (57%), the “Any grade AE” value [2, 10] was 6 (86%) and the “Dysgeusia, any grade” value [2, 10] was 1 (14%). For the same compound, the “Fatigue, any grade” value [2, 10] was 3 (43%), the “Headache, any grade” value [2, 10] was 1 (14%) and the “Hot flashes, any grade” value [2, 10] was 1 (14%). The “Hyperglycemia, any grade” value [2, 10] was 1 (14%), the “Hypocalcemia, any grade” value [2, 10] was 1 (14%) and the “Hyponatremia, any grade” value [2, 10] was 1 (14%). The “Hypophosphatemia, any grade” value [2, 10] was 1 (14%), the “Lymphocyte count decreased, any grade” value [2, 10] was 2 (29%) and the “Lymphocyte count decreased, grade ≥ 3” value [2, 10] was 2 (29%). For the same compound, the “Nausea, any grade” value [2, 10] was 2 (29%), the “Neutrophil count decreased, any grade” value [2, 10] was 4 (57%) and the “Neutrophil count decreased, grade ≥ 3” value [2, 10] was 3 (43%). The “Peripheral sensory neuropathy, any grade” value [2, 10] was 1 (14%), the “Platelet count decreased, any grade” value [2, 10] was 4 (57%) and the “Platelet count decreased, grade ≥ 3” value [2, 10] was 2 (29%). For the same compound, the “Rash maculo-papular, any grade” value [2, 10] was 1 (14%), the “White blood cell decreased, any grade” value [2, 10] was 4 (57%) and the “White blood cell decreased, grade ≥ 3” value [2, 10] was 2 (29%). The “Anemia, any grade” value [2, 11] was 4 (80%), the “Anemia, grade ≥ 3” value [2, 11] was 2 (40%) and the “Any Grade ≥ 3 AE” value [2, 11] was 5 (100%). For the same compound, the “Any grade AE” value [2, 11] was 5 (100%), the “Fatigue, any grade” value [2, 11] was 4 (80%) and the “Fatigue, grade ≥ 3” value [2, 11] was 1 (20%). The “Lymphocyte count decreased, any grade” value [2, 11] was 2 (40%), the “Lymphocyte count decreased, grade ≥ 3” value [2, 11] was 2 (40%) and the “Nausea, any grade” value [2, 11] was 1 (20%). For the same compound, the “Nausea, grade ≥ 3” value [2, 11] was 1 (20%), the “Neutrophil count decreased, any grade” value [2, 11] was 5 (100%) and the “Neutrophil count decreased, grade ≥ 3” value [2, 11] was 5 (100%). The “Platelet count decreased, any grade” value [2, 11] was 4 (80%), the “Vomiting, any grade” value [2, 11] was 1 (20%) and the “Vomiting, grade ≥ 3” value [2, 11] was 1 (20%). The “White blood cell decreased, any grade” value [2, 11] was 5 (100%), the “White blood cell decreased, grade ≥ 3” value [2, 11] was 5 (100%) and the “came off study due to toxicity” value ([2]; of the total 30 patients enrolled) was 10 patients. The clearance ([1]; human, in vivo) was 387 mL/min, the half-life ([1]; human, in vivo) was 4.8 h and the “AUC0-12 and Cmax versus dose” value ([1]; in vivo) was “increase linearly with dose”. For the same compound, the DLT ([3]; in vivo) was “without DLT”, the “patients who experienced a DLT” value ([3]; in vivo) was “none” and the MTD ([3]; with weekly carboplatin and paclitaxel, enrollment to DL4 terminated) was “not formally reached”. The ORR (BRCA mutated TNBC) was “improved ORR”, the PFS benefit (BRCA mutated TNBC) was “did not translate into a PFS benefit” and the “PFS at 1 year” value (metastatic TNBC; veliparib with cisplatin, BRCA-like phenotype) was 20%. For the same compound, the “rate of grade 3/4 neutropenia” value (metastatic TNBC; veliparib with cisplatin) was 46%.

In the case of `Cn1ncnc1[C@H]1c2n[nH]c(=O)c3cc(F)cc(c23)N[C@@H]1c1ccc(F)cc1` [Talazoparib, talazoparib], the “single agent MTD” value (patients [4]; single agent) is listed as 1000 µg and the “patients with dose modification” value (patients [4]; talazoparib with carboplatin AUC5-6 and paclitaxel 80 mg/m^2 days 1, 8, 15 of 21-day cycles) is listed as 87-100%.

In the case of `O=C(c1cc(Cc2n[nH]c(=O)c3ccccc23)ccc1F)N1CCN(C(=O)C2CC2)CC1` [olaparib], the tolerability with carboplatin (patients [5]) is listed as “not tolerable”.

With `N.N.O=C([O-])C1(C(=O)[O-])CCC1.[Pt+2]` [Carboplatin, carboplatin] the “Cmax and AUC0-∞, impact of veliparib dose” value ([1]; ultrafilterable carboplatin, 20 evaluable patients) was “not impacted”.
